# Experimental data reported in patent US11371097B2, “Articles for diagnosis of liver fibrosis” (THE GOVERNMENT OF THE UNITED STATES, as represented by THE …, priority 2015, dated 2022).
# “And” between values parts separate entries of the source, which are not always exact repeats. Identical values can stand only once. Like-named read-outs stand apart in the source and are kept apart here.
# Legend:
# liver = assay type: in vivo, Male Sprague-Dawley rats; conditions: for Periportal fibrosis (Masson's trichrome): 162 mg/kg/day, five-day oral administration;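 for Cytoplasmic Alteration: Severity grades from None 0% through Minimal Mild Moderate to Marked over 80% tissue affected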;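 for Inflammation: Severity grades from None 0% through Minimal Mild Moderate to Marked over 80% tissue affected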;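 for Vacuolation: Severity grades from None 0% through Minimal Mild Moderate to Marked over 80% tissue affected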
# Method: All chemical compounds were diluted in corn oil (CAS No. 8001-30-7) (MP Biomedicals, LLC (Solon, Ohio)). The dose volume was 5 mL/kg. Doses were selected based on doses published in the DrugMatrix database, the National Toxicology Program reports, and ATSDR reports.
# (§1) In vivo rat experiments were performed at Integrated Laboratory Systems (ILS, Research Triangle Park, NC). ILS's Institutional Animal Care and Use Committee approved all experimental procedures. Research was conducted in compliance with the Animal Welfare Act, and other Federal statutes and regulations relating to animals and experiments involving animals and adheres to principles stated in the “Guide for Care and Use of Laboratory Animals” as prepared by the Committee on Care and Use of Laboratory Animals of the Institute of Laboratory Animal Resources, National Research Council in facilities that are fully accredited by the Association for Assessment and Accreditation of Laboratory Animal Care, International. Male Sprague-Dawley rats (CD IGS [CRL:CD (SD)]) were purchased from Charles River Laboratories (Stone Ridge, N.Y.). Rats weighing 215-245 g (8 weeks old) were used. Briefly, rats were housed two per cage with a rat tunnel enrichment device (Bio-Serve, Frenchtown, N.J.). Rats were fed a Purina Rodent Diet No. 5002 (Ralston Purina Co., St. Louis, Mo.), supplied ad libitum. Animals received reverse osmosis-treated tap water (City of Durham, N.C.) ad libitum, which was changed at least once weekly. Controls in the animal rooms were set to maintain temperatures between 20-In vivo rat experiments were performed at Integrated Laboratory Systems (ILS, Research Triangle Park, NC). ILS's Institutional Animal Care and Use Committee approved all experimental procedures. Research was conducted in compliance with the Animal Welfare Act, and other Federal statutes and regulations relating to animals and experiments involving animals and adheres to principles stated in the “Guide for Care and Use of Laboratory Animals” as prepared by the Committee on Care and Use of Laboratory Animals of the Institute of Laboratory Animal Resources, National Research Council in facilities that are fully accredited by the Association for Assessment and Accreditation of Laboratory Animal Care, International. Male Sprague-Dawley rats (CD IGS [CRL:CD (SD)]) were purchased from Charles River Laboratories (Stone Ridge, N.Y.). Rats weighing 215-245 g (8 weeks old) were used. Briefly, rats were housed two per cage with a rat tunnel enrichment device (Bio-Serve, Frenchtown, N.J.). Rats were fed a Purina Rodent Diet No. 5002 (Ralston Purina Co., St. Louis, Mo.), supplied ad libitum. Animals received reverse osmosis-treated tap water (City of Durham, N.C.) ad libitum, which was changed at least once weekly. Controls in the animal rooms were set to maintain temperatures between 20-25° C. with a relative humidity of 30-70% and a 12-hour light/12-hour dark cycle, lights on at 6:00 AM. Clinically healthy animals were assigned to dose groups using a procedure that stratifies animals across groups by body weight such that mean body weight of each group was not statistically different from any other group using analysis of variance (Statistical Analysis System version 9.2, SAS Institute, Cary, N.C.). Animals were dosed by oral gavage for five consecutive days (+10 minutes from the previous day's dose administration time). Volume was based upon daily body weight.
# Animals were observed cageside one hour following daily dose administration, then 1-2 times per day during dosing regimens. Body weights were measured daily prior to dose administration, and prior to euthanasia. Twenty-four hours after the final dose administration, animals were anesthetized with isoflurane then euthanized by exsanguination followed by decapitation. Livers were harvested at necropsy and weighed to within 0.1 g. One half of the left lobe of the liver was fixed in 10% formalin. […]
# [1] = system: 67 genes on the fibrosis gene panel; assay: Multiplexed fibrosis gene panel (QuantiGene 2.0 Plex / Bioplex) on liver RNA
# [2] = assay type: in vivo, Male Sprague-Dawley rats
# Method: as §1
# Animals were observed cageside one hour following daily dose administration, then 1-2 times per day during dosing regimens. Body weights were measured daily prior to dose administration, and prior to euthanasia. Twenty-four hours after the final dose administration, animals were anesthetized with isoflurane then euthanized by exsanguination followed by decapitation. Livers were harvested at necropsy and weighed to within 0.1 g. One half of the left lobe of the liver was fixed in 10% formalin. The remaining half of the left lobe of the liver was flash frozen in liquid nitrogen, then stored below −70° C. Liver specimens were frozen in less than three minutes from time of death.
# [3] = 4,4′-MDA 22 mg/kg, animals 89-92
# [4] = 4,4′-MDA 59.7 mg/kg, animals 93-96
# [5] = 4,4′-MDA 162 mg/kg, animals 97-100
smiles,measurement,setting,value
"Nc1ccc(Cc2ccc(N)cc2)cc1 [4,4′-methylenedianiline]",Periportal fibrosis (Masson's trichrome),liver,periportal fibrosis
same,Periportal fibrosis (Masson's trichrome),"liver; listed as 4,4′-methylenediani line",Perioportal fibrosis was confirmed
same,Bile Duct Hyperplasia and Fibroplasia,liver; [3],0
same,Inflammation,liver; [3],0
same,Necrosis,liver; [3],0
same,Vacuolation,liver; [3],0
same,Bile Duct Hyperplasia and Fibroplasia,liver; [4],2 and 3
same,Inflammation,liver; [4],2 and 3
same,Vacuolation,liver; [4],0
same,Bile Duct Hyperplasia and Fibroplasia,liver; [5],3 and 2
same,Cytoplasmic Alteration,liver; [5],2 and 3
same,Inflammation,liver; [5],2
same,Necrosis,liver; [5],2 and 1
same,Vacuolation,liver; [5],0
same,Combined histopathological scores as percent of animals with pathology,"liver; across dose groups, five days (figure legend)",dose-dependent increase in severe pathology
same,Fibrosis histopathology,liver; low-dose (carbon tetrachloride: all doses),without fibrosis
same,Degree of fibrosis,"liver; oral gavage five days, across doses",dose-dependent increase in the degree of fibrosis
same,"Histopathology: bile duct hyperplasia, fibrosis, necrosis","liver; oral gavage five days, high doses",caused bile duct hyperplasia comorbid with fibrosis and necrosis
same,Anxa2 differential expression,[1]; [4],2.439 and 1.755 and 2.514
same,Arpc1b differential expression,[1]; [4],1.147 and 1.069 and 1.373
same,C1qb differential expression,[1]; [4],0.893 and 0.937 and 1.469
same,CD53 differential expression,[1]; [4],0.950 and 1.045 and 1.560
same,Capg differential expression,[1]; [4],1.169 and 1.723 and 2.026
same,Ccl2 differential expression,[1]; [4],1.483 and 1.928 and 1.705
same,Ctgf differential expression,[1]; [4],1.026 and 0.691 and 1.013
same,Cxcl16 differential expression,[1]; [4],1.969 and 1.196 and 2.174
same,Cyba differential expression,[1]; [4],1.216 and 1.165 and 2.041
same,Dsc2 differential expression,[1]; [4],0.258 and 0.244 and 0.474
same,Fam102b differential expression,[1]; [4],0.577 and 0.939 and 0.845
same,Fam105a differential expression,[1]; [4],1.236 and 1.186 and 1.900
same,Fxyd5 differential expression,[1]; [4],1.025 and 0.916 and 1.613
same,Gpnmb differential expression,[1]; [4],1.876 and 1.911 and 3.162
same,Itga1 differential expression,[1]; [4],1.064 and 1.196 and 1.743
same,Itgb2 differential expression,[1]; [4],0.709 and 1.138 and 1.216
same,Lame2 differential expression,[1]; [4],1.485 and 0.755 and 1.416
same,Lbp differential expression,[1]; [4],2.023 and 1.422 and 2.026
same,Lgals3 differential expression,[1]; [4],1.931 and 2.085 and 2.575
same,Pkm2 differential expression,[1]; [4],1.314 and 1.491 and 2.389
same,Plau differential expression,[1]; [4],0.941 and 0.957 and 1.332
same,RT1-DMa differential expression,[1]; [4],1.381 and 2.022 and 2.522 and 1.938
same,RT1-Da differential expression,[1]; [4],1.431 and 2.375 and 2.640
same,Serpine1 differential expression,[1]; [4],1.151 and 1.305 and 1.475
same,TagIn2 differential expression,[1]; [4],1.404 and 1.169 and 1.971
same,Timp1 differential expression,[1]; [4],1.871 and 1.153 and 2.099
same,RT1-DMa differential expression,[1]; [5],1.970 and 1.713 and 2.157 and 1.814
same,Hierarchical biclustering of log2 fold-changes in panel gene expression,"[1]; liver, 67 genes",clustered together
same,Body weight gain over the five experimental dosing days,[2]; dose groups,decrease in body weight gain
same,Body weight change over the five-day exposure interval,[2]; highest dose(s),gained less weight over the five-day exposure interval than their low-dose counterparts
